# Patent US20060241296A1, “Vanilloid receptor ligands and their use in treatments” (priority 2005, published 2006)
row,SMILES,melting point [°C]
1,"O[C@@H]1Cc2cccc(Nc3cc(-c4ccc(C(F)(F)F)cc4)ncn3)c2C[C@H]1O (racemic) [Example 28, (±)-5-(6-(4-(Trifluoromethyl)phenyl)pyrimidin-4-ylamino)-1,2,3,4-tetrahydronaphthalene-2,3-trans-diol]",286 to 289
2,"OC1CCc2cccc(Nc3cc(-c4ccc(C(F)(F)F)cc4)ncn3)c2C1 (centres unmarked) [Example 1, 8-(6-(4-(Trifluoromethyl)phenyl)pyrimidin-4-ylamino)-1,2,3,4-tetrahydro-naphthalen-2-ol]",178 to 179

# Second part, the compound after the results:
row,melting point [°C],SMILES
1,231 to 232,"O[C@@H]1Cc2c(cccc2Nc2cc(-c3ccc(C(F)(F)F)cc3)ncn2)C[C@@H]1O (racemic) [Example 30, (±)-5-(6-(4-(Trifluoromethyl)phenyl)pyrimidin-4-ylamino)-1,2,3,4-tetrahydronaphthalene-2,3-cis-diol]"
2,233 to 234,"Nc1cc(C(F)(F)F)ccc1-c1cc(Nc2cccc3c2C[C@@H](O)[C@@H](O)C3)ncn1 (racemic) [Example 31, (±)-5-(6-(2-Amino-4-(trifluoromethyl)phenyl)pyrimidin-4-ylamino)-1,2,3,4-tetrahydronaphthalene-2,3-cis-diol]"
3,192,"OC1CCc2c(Br)ccc(Nc3cc(-c4ccc(C(F)(F)F)cc4)ncn3)c2C1 (centres unmarked) [Example 37, 5-Bromo-8-(6-(4-(trifluoromethyl)phenyl)pyrimidin-4-ylamino)-1,2,3,4-tetrahydronaphthalen-2-ol]"
